We go through three molecules from patent publication US5373020A, “Substituted 5-(2-((2-aryl-2-hydroxyethyl)amino)propyl)-1,3-benzodioxoles” (American Cyanamid Company, priority 1993, dated 1994).

The test system of assay [1] is ob/ob mice. In words: Plasma glucose, compound in chow, obese mice. Format: in vivo, mouse (C57 B1/6J ob/ob). As for the experimental part:
(§1) The compounds of this invention were tested for hypoglycemic and anti-obesity activity according to the following procedure.
(§2) Obese mice (C57 B1/6J (ob/ob)), and/or diabetic mice (C57 B1/KsJ (db/db)) were obtained from Jackson Laboratories, Bar Harbor, Maine. Obese rats (fa/fa) were obtained from Charles River Laboratories, Wilmington, Mass. Obese mice were 8 weeks of age and diabetic mice were 9 weeks of age at the start of the test. Obese rats were 12-14 weeks of age at the start.
(§3) The test compounds were dissolved in methanol, mixed with powdered Purina rodent chow on a weight of compound to weight of chow basis and thoroughly dried.
(§4) Groups of 6 control mice or rats received vehicle (methanol) treated chow.
[…] Thus, a 40 g mouse, fed the test compound at a concentration of 0.02 percent of the diet, would receive a dose of 20 mg/kg/day if it ate 4 g of chow per day.
(§5) The mice or rats were weighed before the first treatment and once at the end of each indicated treatment period.
(§6) Blood samples were collected before the first treatment and once at the end of each indicated treatment period by retro-orbital puncture using heparinized capillary tubes.
(§7) Plasma was separated by centrifugation in a Beckman microfuge for 5 minutes. Plasma glucose concentrations were determined with the Beckman glucose analyzer which uses a glucose oxidase method.

The next assay has as its target T1, β2-receptors (Mus musculus, UniProt P18762).
T1 construct: Soleus muscle from mice were dissected; from tissue; host or cells: mouse soleus muscle
In words: Inhibition of insulin-mediated incorporation of 14C-glucose into glycogen in isolated soleus muscle (β2-effect). Particulars: for β2 activity: CL1 vs BRL1 (FIG. 1), CL2 vs BRL2 (FIG. 2). Here is the method:
(§8) β-Adrenergic receptors can be divided into β1, β2 and β3 -subtypes. Activation of β1 -receptors invokes increases in heart rate while activation of β2 -receptors stimulates glycogen breakdown in muscle and thereby prevents glycogen synthesis. Activation of β3 -receptors stimulates lipolysis (the breakdown of adipose tissue triglycerides to glycerol and free fatty acids), and thereby promotes the loss of fat mass.
The β2 -effect of the compounds was determined by their ability to inhibit the insulin-mediated incorporation of ^14 C-glucose into glycogen in isolated muscle. Soleus muscle from mice were dissected, tied at each end, and placed in a clamp to maintain tension. The clamped muscle was added to a vial that contained 2 ml of KHB with 1.5% bovine serum albumin, 0.3 mU/ml insulin, 5 mM (U^-14 C) glucose, and the appropriate additions of compound or vehicle. The vial was gassed with 95% O2 -5% CO2, capped, and the tissue incubated for one hour in a rotating water bath at 37° C. The muscle was then removed, rinsed in ice-cold saline, blotted and weighed. It was then added to 1 ml of 30% KOH containing 5 mg/ml of oyster glycogen, boiled for 10 minutes, and 0.4 ml of 2% Na2 SO4 and 3.2 ml of 100% ethanol added. After standing overnight at 4° C., the glycogen was pelleted by centrifugation, washed once with 66% ethanol, and repelleted. The pellet was dissolved in 1 ml of water and the amount of radioactivity present determined by liquid scintillation.

Another assay concerns db/db mice. Kind of assay: Plasma glucose, compound in chow, diabetic mice. The assay is classed as in vivo, mouse (C57 B1/KsJ db/db). As for the experimental part:
as §1, §2, §3, §4
(§9) Groups of 6 test mice were fed ad libitum for up to seven weeks and food consumption was measured daily by weighing the food bins before and after the addition of fresh chow. Thus, a 40 g mouse, fed the test compound at a concentration of 0.02 percent of the diet, would receive a dose of 20 mg/kg/day if it ate 4 g of chow per day.
as §5, §6, §7

For the next assay, the target named is T2, β3-receptors (Rattus norvegicus, UniProt P26255).
T2 construct: Rat epididymal fat pads were excised and placed in 0.9% saline; from tissue; host or cells: collagenase-isolated adipocytes from rat epididymal fat pads
Kind of assay: Stimulation of adipocyte lipolysis (β3-effect). Format: cell-based. The following applies: for β3 potency in comparison: CL1 vs BRL1 (FIG. 1), CL2 vs BRL2 (FIG. 2). Here is the method: as §8
The β3 -effect of the compounds was determined by their ability to stimulate adipocyte lipolysis. Rat epididymal fat pads were excised and placed in 0.9% saline. Four grams of tissue were transferred to a flask with 20 ml of aerated Krebs-Henseleit bicarbonate (KHB) buffer containing 3% fatty acid-free bovine serum albumin to which 75 mg of crude bacterial collagenase (Worthington) had been added. The tissue was incubated for about 45 minutes at 37° C. with gentle shaking. The cells were then washed three times with two volumes of KHB buffer, filtered through two layers of gauze, and brought to a final volume of 80 ml with KHB buffer. One ml aliquots of the cell suspension were added to plastic test tubes containing the appropriate additions of vehicle or compound. The cells were gassed for 1 minute with 95% O2 -5% CO2, capped, and incubated at 37° C. with continuous shaking for a total of 30 minutes. The reaction was stopped by adding 0.1 ml of 30% perchloric acid and 0.1 ml of chloroform. After centrifugation, 0.5 ml of supernatant was transferred to another test tube and neutralized with 0.04 ml of 3M K2 CO3 -0.5M triethanolamine. The amount-of glycerol generated from the hydrolysis of endogenous triglycerides was determined in a coupled-enzyme spectrophotometric assay. […] The test tubes were incubated for 40 minutes at 37° C. with constant shaking. […] This value was corrected for the amount of NADH generated in the absence of glycerol by incubating another aliquot of the neutralized extract with the same assay mixture but without glycerokinase.

For a further assay, the target named is T3, β1-receptors (Cavia porcellus, UniProt H0W3H1).
T3 construct: from tissue; host or cells: guinea pig right atria
In words: Effect on heart rate of isolated right atria (β1-effect). Details: species or system guinea pig. The following applies: for β1 activity: CL1 vs BRL1 (FIG. 1), CL2 vs BRL2 (FIG. 2). Here is the method:
as §8
Selectivity of a compound was determined using the following procedures. The effect on heart rate (β1 -effect) was determined using isolated right atria. […] The right atria were dissected and clamped at one end to a tissue holder and electrode assembly (MRA Corp.) and tied at the other end to a force-displacement transducer (Gould-Statham, Burco). The tissues were maintained at 32° C. in a 50 ml capacity glass chamber (MRA Corp.) preloaded with 0.5 g tension. Heart rate was monitored by a Grass polygragh. […] The increase in heart rate was calculated and considered to be the maximum response for that tissue. The tissues were then washed and allowed to equilibrate for 90 minutes. Cumulative concentration-response curves were then determined for each compound or vehicle. All responses were measured 5 minutes post-exposure.

The test system of assay [2] is ob/ob mice. In words: Change in weight and food consumption, compound in chow, obese mice. The assay is classed as in vivo, mouse (C57 B1/6J ob/ob). As for the experimental part:
as §1, §2, §3, §4, §9, §5

Where [3] appears, read: dose 0.0005 % wt of chow, week 0 (before treatment).
[4] abbreviates: dose 0.0005 % wt of chow, week 1.
[5] abbreviates: dose 0.005 % wt of chow, week 0 (before treatment).
Where [6] appears, read: dose 0.005 % wt of chow, week 1.
The mark [7] stands for this setting: dose 0.005 % wt of chow, week 2.
Setting [8] is: dose 0.002 % wt of chow, week 0 (before treatment).
Where [9] appears, read: dose 0.002 % wt of chow, week 1.
Where [10] appears, read: dose 0.002 % wt of chow, week 4.
[11] abbreviates: dose 0.005 % wt of chow, week 4.

Structures are written as SMILES. A value given as a limit tells only on which side of the number the result lay.

T1 sequence (P18762 whole entry): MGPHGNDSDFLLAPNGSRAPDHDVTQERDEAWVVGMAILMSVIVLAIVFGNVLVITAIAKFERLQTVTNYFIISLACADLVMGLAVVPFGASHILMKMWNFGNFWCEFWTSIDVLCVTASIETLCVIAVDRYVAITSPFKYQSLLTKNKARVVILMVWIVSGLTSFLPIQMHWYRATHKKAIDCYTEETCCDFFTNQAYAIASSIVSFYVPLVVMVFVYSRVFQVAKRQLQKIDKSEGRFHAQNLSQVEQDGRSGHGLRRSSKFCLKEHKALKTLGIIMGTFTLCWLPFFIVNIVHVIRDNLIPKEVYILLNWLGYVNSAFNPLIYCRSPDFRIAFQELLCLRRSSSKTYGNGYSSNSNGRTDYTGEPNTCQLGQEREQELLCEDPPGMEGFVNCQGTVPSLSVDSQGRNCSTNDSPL
T2 sequence (P26255 whole entry): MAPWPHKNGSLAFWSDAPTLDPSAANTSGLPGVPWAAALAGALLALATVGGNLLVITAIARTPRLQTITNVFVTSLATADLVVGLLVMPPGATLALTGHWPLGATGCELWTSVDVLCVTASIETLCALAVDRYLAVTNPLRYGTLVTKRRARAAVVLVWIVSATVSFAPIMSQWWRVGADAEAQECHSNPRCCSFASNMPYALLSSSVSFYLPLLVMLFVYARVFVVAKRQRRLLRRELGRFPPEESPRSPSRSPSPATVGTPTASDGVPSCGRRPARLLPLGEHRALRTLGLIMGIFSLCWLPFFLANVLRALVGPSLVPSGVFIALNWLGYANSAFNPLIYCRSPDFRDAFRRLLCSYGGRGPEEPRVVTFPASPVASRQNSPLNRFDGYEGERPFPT
T3 sequence (H0W3H1 1-470): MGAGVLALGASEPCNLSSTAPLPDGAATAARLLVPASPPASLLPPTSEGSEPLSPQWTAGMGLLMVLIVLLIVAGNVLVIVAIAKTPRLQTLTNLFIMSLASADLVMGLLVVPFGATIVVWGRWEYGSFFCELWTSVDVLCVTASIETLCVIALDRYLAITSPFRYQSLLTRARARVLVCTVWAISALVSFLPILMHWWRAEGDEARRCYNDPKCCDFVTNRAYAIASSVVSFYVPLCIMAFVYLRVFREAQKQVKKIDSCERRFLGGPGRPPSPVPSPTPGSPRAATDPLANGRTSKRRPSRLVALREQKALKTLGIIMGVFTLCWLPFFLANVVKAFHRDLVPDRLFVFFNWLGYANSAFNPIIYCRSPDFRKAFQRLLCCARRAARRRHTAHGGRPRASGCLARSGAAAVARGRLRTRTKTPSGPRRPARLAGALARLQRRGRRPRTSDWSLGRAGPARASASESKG

Regarding `COC(=O)COc1ccc(C[C@@H](C)NC[C@H](O)c2ccc(Cl)cc2)cc1` (relative stereo) [BRL1, (R*,R*)-(±)-(4-(2-((2-(4-chlorophenyl)-2-hydroxyethyl)amino)propyl)phenoxy)-acetic acid, methyl ester, reference compound], the “Plasma Glucose Levels” value in the assay on ob/ob mice [1] (dose 0.0001 % wt of chow, week 0 (before treatment)) came out at 231 mg/100 ml; in the assay on ob/ob mice [1] (dose 0.0001 % wt of chow, week 1), 143 mg/100 ml; with ob/ob mice [1] (dose 0.0001 % wt of chow, week 2) it was 119 mg/100 ml; with ob/ob mice [1] (setting [3]) it was 232 mg/100 ml; in the assay with ob/ob mice [1] (setting [4]), 140 mg/100 ml; with ob/ob mice [1] (dose 0.0005 % wt of chow, week 2), 126 mg/100 ml. For the same molecule, the “Plasma Glucose Levels” value with ob/ob mice [1] (setting [5]) is reported as 231 mg/100 ml; in the assay on ob/ob mice [1] (setting [6]), 137 mg/100 ml; in the assay on ob/ob mice [1] (setting [7]) it was 138 mg/100 ml; in the assay on db/db mice (setting [5]) it was 440 mg/100 ml; in the assay with db/db mice (setting [6]) it was 138 mg/100 ml; with db/db mice (setting [7]), 132 mg/100 ml. For the same molecule, the values for the EC50 on β2-receptors, on β3-receptors and at β1-receptors were 120 nM, 13 nM and 0.2 µM, respectively. Also, on β2-receptors, the “β2 activity” value was “more of the undesirable β1 and β2 activities than does CL1”. At β3-receptors, the “β3 potency in comparison” value is reported as “slightly greater β3 potency”. The “Selectivity for Lipolysis over Atria ((EC50 - β1)/(EC50 - β3))” value on β3-receptors (ratio EC50 β1 / EC50 β3) was 15. Also, the “Selectivity for Lipolysis over Gly. Syn. ((EC50 - β2)/(EC50 - β3))” value at β3-receptors (ratio EC50 β2 / EC50 β3) is recorded as 9. Moreover, at β1-receptors, the “β1 activity” value was “more of the undesirable β1 and β2 activities than does CL1”.
Consider `C[C@H](Cc1ccc(OCC(=O)[O-])cc1)NC[C@H](O)c1cccc(Cl)c1.[Na+]` (relative stereo) [BRL2, (R*,R*)(+/-)4-(2-((2-(3-chlorophenyl)-2-hydroxyethyl)amino)propyl)phenoxy-acetic acid, monosodium salt], for which, on β2-receptors, a half-maximal effect (EC50) was put at 800 nM and the “β2 activity” value is reported as “full agonist with measurable activity at 1×10^-7M”. Besides, on β1-receptors, the concentration giving a half-maximal response (EC50) worked out at 5.6 µM and the “β1 activity” value is reported as “significant β1 activity”.
Turning to `C[C@H](Cc1ccc2c(c1)OC(C(=O)[O-])(C(=O)[O-])O2)NC[C@H](O)c1cccc(Cl)c1.[Na+].[Na+]` (stereo in doubt) [CL2, (R*,R*)-(±)-5(2-((2-(3-chlorophenyl)-2-hydroxyethyl)amino)propyl)-1,3-benzodioxole-2,2-dicarboxylic acid, disodium salt], the “Plasma Glucose Levels” value in the assay on ob/ob mice [1] (setting [3]) is 218 mg/100 ml; in the assay on ob/ob mice [1] (setting [4]), 193 mg/100 ml; in the assay with ob/ob mice [1] (dose 0.0005 % wt of chow, week 4), 240 mg/100 ml; with ob/ob mice [1] (setting [8]), 220 mg/100 ml; in the assay with ob/ob mice [1] (setting [9]), 162 mg/100 ml; with ob/ob mice [1] (setting [10]), 197 mg/100 ml. Besides, the “Plasma Glucose Levels” value with ob/ob mice [1] (setting [5]) is 220 mg/100 ml; with ob/ob mice [1] (setting [6]), 145 mg/100 ml; in the assay with ob/ob mice [1] (setting [11]), 165 mg/100 ml; in the assay with db/db mice (setting [8]), 453 mg/100 ml; with db/db mice (setting [9]), 236 mg/100 ml; in the assay on db/db mice (dose 0.002 % wt of chow, week 5), 190 mg/100 ml. In addition, the “Plasma Glucose Levels” value in the assay on db/db mice (dose 0.002 % wt of chow, week 7) was 25 mg/100 ml; with db/db mice (setting [5]), 452 mg/100 ml; in the assay with db/db mice (setting [6]) it was 155 mg/100 ml; in the assay on db/db mice (dose 0.005 % wt of chow, week 5) it was 145 mg/100 ml; in the assay on db/db mice (dose 0.005 % wt of chow, week 7), 16 mg/100 ml. In addition, the “Average Daily Food Consumption” value is recorded as 5.2 g/animal in the assay on ob/ob mice [2] (dose 0.002 % wt of chow) and 5.9 g/animal in the assay on ob/ob mice [2] (dose 0.005 % wt of chow). Moreover, the Change in weight is 1.6 grams in the assay on ob/ob mice [2] (setting [9]); 4.1 grams in the assay with ob/ob mice [2] (dose 0.002 % wt of chow, week 2); 4.7 grams in the assay on ob/ob mice [2] (dose 0.002 % wt of chow, week 3); 7.3 grams in the assay with ob/ob mice [2] (setting [10]); 0.2 grams in the assay with ob/ob mice [2] (setting [6]); 1.6 grams in the assay on ob/ob mice [2] (setting [7]). Further, the Change in weight with ob/ob mice [2] (dose 0.005 % wt of chow, week 3) was determined as 2.4 grams; in the assay on ob/ob mice [2] (setting [11]) it was 4.7 grams. The 50% effective concentration (EC50) was > 100000 nM at β2-receptors and > 1000 µM at β1-receptors. In addition, the “β2 activity” value on β2-receptors is on record as “only minimal β2 activity at 1×10^-4 M”. The “β3 potency in comparison” value at β3-receptors was “slightly greater β3 potency than does BRL2”. The “β1 activity” value at β1-receptors is recorded as “no measurable β1 activity”.
